Assays:
[1] = system: Candida albicans; test: Intracellular cleavage exhibited in Candida albicans ATCC 26278; assay type: functional
[2] = system: Candida albicans; test: Rate of transport of compound in Candida albicans ATCC 26278; assay type: functional

Row | SMILES | Cleavage rate [1] | Transport rate [2]
1 | CCC[C@H](NC(=O)[C@@H](N)CCSC)C(=O)N[C@@H](CNC(=O)CI)C(=O)O | 3.8 µmol/min/mg | –
2 | CCC[C@H](NC(=O)[C@H](N)CCSC)C(=O)N[C@@H](CNC(=O)CI)C(=O)O | – | 0.5 µmol/min/mg
3 | CSCCC(N)C(=O)NC(CNC(=O)CI)C(=O)O (centres undefined) | 3.1 µmol/min/mg | 1.9 µmol/min/mg

Reference: ChEMBL document CHEMBL1125145, “Antimicrobial properties of N3-(iodoacetyl)-L-2,3-diaminopropanoic acid-peptide conjugates” (1990)
